Laboratory results reported in patent US20190358181A1, “METHODS FOR AUTISM SPECTRUM DISORDER PHARMACOTHERAPY” (priority 2017, published 2019).

Tested on: 610 metabolites from 63 biochemical pathways
Assay: Targeted broad-spectrum plasma metabolomic analysis (LC-MS/MS), paired pre-infusion vs post-infusion (2-days and 6-weeks)
Assay type: in vivo, human
Details: for Linear Ratio / VIP Score / Z Abs / Z Score: plasma
Procedure: Targeted, broad-spectrum, plasma metabolomic analysis of 610 metabolites from 63 biochemical pathways was performed by high performance liquid chromatography and tandem mass spectrometry (LC-MS/MS) on the samples collected from patients in Example 1. Venous blood was collected between the hours of 8 am and 5 pm, at least 3 hours after the last meal, into lithium-heparin vacutainer tubes (BD #367884). Plasma was separated by centrifugation at 900 g×10 minutes at room temperature within one hour of collection. The resulting fresh lithium-heparin plasma was transferred to labeled 1.2 ml or 2.0 ml externally threaded cryotubes with a minimum headspace air gap for storage at −80° C. for analysis. Samples were analyzed on an AB SCIEX QTRAP 5500 triple quadrupole mass spectrometer equipped with a Turbo V electrospray ionization (ESI) source, Shimadzu LC-20A UHPLC system, and a PAL CTC autosampler. Typically, 90 μl of plasma was thawed on ice and transferred to a 1.7 ml Eppendorf tube. Five (5.0) μl of a cocktail containing 25-35 commercial stable isotope internal standards, and 5.0 μl of 57 stable isotope internal standards that were custom-synthesized in E. coli NCM3722, Caenorhabditis elegans N2, and Komagataella phaffii (ATCC 76273; formerly known as Pichia pastoris) by metabolic labeling with 13C-glucose and 13C-bicarbonate, were added, mixed, and incubated for 10 min at 20° C. to permit small molecules and vitamins in the internal standards to associate with plasma binding proteins. Macromolecules (protein, DNA, RNA, glycans, etc.) were precipitated by extraction with 4 volumes (400 μl) of cold (−20° C.), acetonitrile:methanol (50:50) (LCMS grade, Cat #LC015-2.5 and GC230-4, Burdick & Jackson, Honeywell), vortexed vigorously, and incubated on crushed ice for 10 min, then removed by centrifugation at 16,000 g×10 min at 4° C. The supernatants containing the extracted metabolites and internal standards in the resulting 40:40:20 solvent mix of acetonitrile:methanol:water were transferred to labeled cryotubes and stored at −80° C. for LCMS/MS analysis.
LC-MS/MS analysis was performed by scheduled multiple reaction monitoring (sMRM) under Analyst v1.6.2 software control in both negative and positive mode with rapid polarity switching (50 ms). Nitrogen was used for curtain gas (set to 30), collision gas (set to high), ion source gas 1 and 2 (set to 35). The source temperature was 500° C. Spray voltage was set to −4500 V in negative mode and 5500 V in positive mode. The values for Q1 and Q3 mass-to-charge ratios (m/z), declustering potential (DP), entrance potential (EP), collision energy (CE), and collision cell exit potential (CXP) were determined and optimized for each MRM for each metabolite. Ten microliters of extract was injected by PAL CTC autosampler via a 10 μl stainless steel loop into a 250 mm×2.0 mm, 4 μm polymer based NH2 HPLC column (Asahipak NH2P-40 2E, Showa Denko America, Inc., NY) held at 25° C. for chromatographic separation. The mobile phase was solvent A: 95% water with 20 mM (NH4)2CO3 (Sigma, Fluka Cat #74415-250G-F), 5% acetonitrile, and 38 mM NH4OH (Sigma, Fluka Cat #17837-100ML), final pH 9.75; solvent B: 100% acetonitrile. Separation was achieved using the following gradient: 0-3.5 min: 95% B, 3.6-8 min: 85% B, 8.1-13 min: 75% B, 13.5-35 min: 0% B, 36-46 min: 95% B, 46.1 min: end. The flow rate was 200 μl/min. Pump pressures ranged from 920-2600 psi over the course of the gradient. All the samples were kept at 4° C. during analysis. The chromatographic peaks were identified using MultiQuant (v3.0, Sciex), confirmed by manual inspection, and the peak areas integrated. […]

[1] = Fatty Acid Oxidation and Synthesis, 6-weeks
[2] = GABA, Glutamate, Arginine, Ornithine, Proline, 6-weeks
[3] = GABA, Glutamate, Arginine, Ornithine, 2-days
[4] = Gamma-Glutamyl and other Dipeptides, 2-days
[5] = Gamma-Glutamyl and other Dipeptides, 6-weeks
[6] = Gamma-glutamyl-Alanine, 6-weeks
[7] = Glycolysis and Gluconeogenesis Metabolism, 2-days
[8] = Glycolysis and Gluconeogenesis Metabolism, 6-weeks
[9] = Glycosphingolipid Metabolism, 2-days
[10] = Hexose Disaccharide Pool, 6-weeks
[11] = Histidine, Histamine, Carnosine Metabolism, 2-days
[12] = Histidine, Histamine, Carnosine Metabolism, 6-weeks
[13] = Nitric Oxide, Superoxide, Peroxide Metabolism, 6-weeks
[14] = Nitric Oxide, Superoxide, Peroxide, 2-days
[15] = Phospholipid Metabolism, 2-days
[16] = Phospholipid Metabolism, 6-weeks

## Cc1ccc(C(=O)Nc2ccc(S(=O)(=O)O)c3cc(S(=O)(=O)O)cc(S(=O)(=O)O)c23)cc1NC(=O)c1cccc(NC(=O)Nc2cccc(C(=O)Nc3cc(C(=O)Nc4ccc(S(=O)(=O)O)c5cc(S(=O)(=O)O)cc(S(=O)(=O)O)c45)ccc3C)c2)c1 [Suramin, suramin]
[1]
  Increased: 0
  Observed Hits in the Top 48 Metabolites: 3
[2]
  Decreased: 0
  Fold Enrichment (Obs/Exp): 3.0
  Fraction of Impact (VIP Score) Explained (% of 94.6): 4%
  Impact (Sum VIP Score): 3.9
  Increased: 2
  Observed Hits in the Top 48 Metabolites: 2
[3]
  Decreased: 0
  Fold Enrichment (Obs/Exp): 3.5
  Fraction of Impact (VIP Score) Explained (% of 119.7): 4%
  Impact (Sum VIP Score): 4.7
  Increased: 3
  Observed Hits in the Top 61 Metabolites: 3
[4]
  Decreased: 0
  Fold Enrichment (Obs/Exp): 7.1
  Fraction of Impact (VIP Score) Explained (% of 119.7): 3%
  Impact (Sum VIP Score): 3.8
  Increased: 2
  Observed Hits in the Top 61 Metabolites: 2
[5]
  Decreased: 0
  Fold Enrichment (Obs/Exp): 4.5
  Fraction of Impact (VIP Score) Explained (% of 94.6): 2%
  Impact (Sum VIP Score): 2.4
  Increased: 1
  Observed Hits in the Top 48 Metabolites: 1
[6]
  Linear Ratio: 1.644
  VIP Score: 2.353
  Z Abs: 1.725
  Z Score: 1.725
Glycerol 3-phosphate, 6-weeks
  Linear Ratio: 1.294
  VIP Score: 2.081
  Z Abs: 1.731
  Z Score: 1.731
Glycine, 6-weeks
  Linear Ratio: 1.392
  VIP Score: 2.523
  Z Abs: 1.891
  Z Score: 1.891
Glycocholic acid, 6-weeks
  Linear Ratio: 2.270
  VIP Score: 1.956
  Z Abs: 1.945
  Z Score: 1.945
[7]
  Decreased: 0
  Fold Enrichment (Obs/Exp): 2.0
  Fraction of Impact (VIP Score) Explained (% of 119.7): 4%
  Impact (Sum VIP Score): 4.3
  Increased: 2
  Observed Hits in the Top 61 Metabolites: 2
[8]
  Decreased: 0
  Fold Enrichment (Obs/Exp): 1.3
  Fraction of Impact (VIP Score) Explained (% of 94.6): 2%
  Impact (Sum VIP Score): 2.1
  Increased: 1
  Observed Hits in the Top 48 Metabolites: 1
[9]
  Decreased: 0
  Fold Enrichment (Obs/Exp): 0.6
  Fraction of Impact (VIP Score) Explained (% of 119.7): 2%
  Impact (Sum VIP Score): 2.1
  Increased: 1
  Observed Hits in the Top 61 Metabolites: 1
Guanidinoacetic acid, 6-weeks
  Linear Ratio: 1.217
  VIP Score: 1.644
  Z Abs: 1.254
  Z Score: 1.254
[10]
  Linear Ratio: 2.121
  VIP Score: 1.911
  Z Abs: 1.220
  Z Score: 1.220
Hippuric acid, 6-weeks
  Linear Ratio: 1.602
  VIP Score: 1.559
  Z Abs: 0.881
  Z Score: 0.881
Histamine, 6-weeks
  Linear Ratio: 1.219
  VIP Score: 2.279
  Z Abs: 1.312
  Z Score: 1.312
[11]
  Decreased: 0
  Fold Enrichment (Obs/Exp): 1.8
  Fraction of Impact (VIP Score) Explained (% of 119.7): 2%
  Impact (Sum VIP Score): 1.8
  Increased: 1
  Observed Hits in the Top 61 Metabolites: 1
[12]
  Decreased: 0
  Fold Enrichment (Obs/Exp): 2.2
  Fraction of Impact (VIP Score) Explained (% of 94.6): 2%
  Impact (Sum VIP Score): 2.3
  Increased: 1
  Observed Hits in the Top 48 Metabolites: 1
Hydroxyproline, 6-weeks
  Linear Ratio: 1.210
  VIP Score: 2.039
  Z Abs: 3.005
  Z Score: 3.005
Krebs Cycle, 2-days
  Decreased: 0
  Fold Enrichment (Obs/Exp): 1.6
  Fraction of Impact (VIP Score) Explained (% of 119.7): 3%
  Impact (Sum VIP Score): 3.3
  Increased: 2
  Observed Hits in the Top 61 Metabolites: 2
Krebs Cycle, 6-weeks
  Decreased: 0
  Fold Enrichment (Obs/Exp): 2.0
  Fraction of Impact (VIP Score) Explained (% of 94.6): 5%
  Impact (Sum VIP Score): 4.3
  Increased: 2
  Observed Hits in the Top 48 Metabolites: 2
L-Asparagine, 6-weeks
  Linear Ratio: 1.360
  VIP Score: 1.824
  Z Abs: 1.581
  Z Score: 1.581
L-Cystine, 6-weeks
  Linear Ratio: 1.190
  VIP Score: 1.774
  Z Abs: 1.060
  Z Score: 1.060
L-Kynurenine, 6-weeks
  Linear Ratio: 1.303
  VIP Score: 2.096
  Z Abs: 1.751
  Z Score: 1.751
L-Phenylalanine, 6-weeks
  Linear Ratio: 1.245
  VIP Score: 1.875
  Z Abs: 1.381
  Z Score: 1.381
L-Proline, 6-weeks
  Linear Ratio: 1.196
  VIP Score: 1.546
  Z Abs: 0.749
  Z Score: 0.749
L-Serine, 6-weeks
  Linear Ratio: 1.152
  VIP Score: 1.505
  Z Abs: 0.954
  Z Score: 0.954
Lathosterol, 6-weeks
  Linear Ratio: 1.284
  VIP Score: 1.844
  Z Abs: 1.079
  Z Score: 1.079
Methionine sulfoxide, 6-weeks
  Linear Ratio: 1.409
  VIP Score: 2.104
  Z Abs: 2.083
  Z Score: 2.083
Mevalonic acid, 6-weeks
  Linear Ratio: 1.386
  VIP Score: 1.673
  Z Abs: 1.036
  Z Score: 1.036
Microbiome Metabolism, 2-days
  Decreased: 0
  Fold Enrichment (Obs/Exp): 1.6
  Fraction of Impact (VIP Score) Explained (% of 119.7): 8%
  Impact (Sum VIP Score): 9.3
  Increased: 4
  Observed Hits in the Top 61 Metabolites: 4
Microbiome Metabolism, 6-weeks
  Decreased: 0
  Fold Enrichment (Obs/Exp): 2.0
  Fraction of Impact (VIP Score) Explained (% of 94.6): 9%
  Impact (Sum VIP Score): 8.4
  Increased: 4
  Observed Hits in the Top 48 Metabolites: 4
[13]
  Decreased: 0
  Fold Enrichment (Obs/Exp): 4.5
  Fraction of Impact (VIP Score) Explained (% of 94.6): 2%
  Impact (Sum VIP Score): 2.2
  Increased: 1
  Observed Hits in the Top 48 Metabolites: 1
[14]
  Decreased: 1
  Fold Enrichment (Obs/Exp): 3.5
  Fraction of Impact (VIP Score) Explained (% of 119.7): 2%
  Impact (Sum VIP Score): 1.9
  Increased: 0
  Observed Hits in the Top 61 Metabolites: 1
Octanoylcarnitine, 6-weeks
  Linear Ratio: 0.703
  VIP Score: 1.780
  Z Abs: 1.451
  Z Score: −1.451
PE (18:0/18:0), 6-weeks
  Linear Ratio: 0.644
  VIP Score: 1.555
  Z Abs: 1.331
  Z Score: −1.331
[15]
  Decreased: 3
  Fold Enrichment (Obs/Exp): 0.3
  Fraction of Impact (VIP Score) Explained (% of 119.7): 5%
  Impact (Sum VIP Score): 5.7
  Increased: 0
  Observed Hits in the Top 61 Metabolites: 3
[16]
  Decreased: 1
  Fold Enrichment (Obs/Exp): 0.1
  Fraction of Impact (VIP Score) Explained (% of 94.6): 2%
  Impact (Sum VIP Score): 1.6
  Increased: 0
  Observed Hits in the Top 48 Metabolites: 1
Purine Metabolism, 2-days
  Decreased: 5
  Fold Enrichment (Obs/Exp): 2.4
